One experiment concerns the target α-glucosidase (yeast). Briefly: chromogenic pNPG hydrolysis assay ([…] nm), commercial yeast enzyme. It is filed as biochemical.
In experiment [1] the target is T1, α-amylase (porcine pancreatic amylase) (Sus scrofa, UniProt P00690).
T1 construct: gene AMY2
T1 sequence (P00690 16-511): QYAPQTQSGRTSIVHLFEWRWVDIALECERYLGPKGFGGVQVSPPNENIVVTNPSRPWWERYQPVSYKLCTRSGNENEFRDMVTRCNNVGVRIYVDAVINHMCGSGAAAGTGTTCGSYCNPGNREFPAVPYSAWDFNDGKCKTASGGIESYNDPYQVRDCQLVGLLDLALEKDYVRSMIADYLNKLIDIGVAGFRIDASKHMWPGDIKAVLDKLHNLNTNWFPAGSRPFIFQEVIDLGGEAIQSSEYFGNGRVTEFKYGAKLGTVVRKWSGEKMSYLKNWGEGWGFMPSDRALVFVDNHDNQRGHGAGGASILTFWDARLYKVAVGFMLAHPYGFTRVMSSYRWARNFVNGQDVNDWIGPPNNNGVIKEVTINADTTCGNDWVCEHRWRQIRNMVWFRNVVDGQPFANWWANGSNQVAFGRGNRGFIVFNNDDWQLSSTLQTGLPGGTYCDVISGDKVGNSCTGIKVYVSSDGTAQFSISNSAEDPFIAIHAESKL
Put plainly: chromogenic enzyme inhibition assay ([…] nm), commercial porcine pancreatic amylase. It is filed as biochemical.

For `Oc1cc(O)cc(Oc2cc(O)c3c(c2-c2c(O)cc(O)c4c2Oc2c(O)cc(Oc5c(O)cc(O)cc5O)c(Oc5cc(O)cc(O)c5)c2O4)Oc2c(O)cc(O)c(Oc4cc(O)cc(O)c4)c2O3)c1` [2,7″-Phloroglucinol-6,6′-bieckol], the IC50 (as a rule, the point on the concentration scale where inhibition reaches its midpoint) was 23.4 µM against α-glucosidase (yeast) and 6.94 µM in experiment [1].

The values above are taken from PMC6130562, “A phlorotannin constituent of Ecklonia cava alleviates postprandial hyperglycemia in diabetic mice” (Pharmaceutical Biology, 2017).
